Data as given in US9486427B2, “Administration of aerosolised iloprost” (VECTURA GMBH, priority 2012, dated 2016).
Read-outs that look alike come from different tables or passages of the source.

Key:
[1] = system: patients with pulmonary arterial hypertension; experiment: Clinical pilot study of safety and tolerability of rapidly inhaled nebulised iloprost (Example 3); assay type: in vivo, human
Method: A clinical pilot study to evaluate the safety and tolerability of nebulised iloprost administered by inhalation according to the invention was conducted with 4 patients. Eligible were male and female patients with pulmonary arterial hypertension in the age from 18 to 70 years having a mean pulmonary arterial blood pressure (PAP) higher than 25 mm Hg, a pulmonary vascular resistance (PVR) higher than 240 dyn*s*cm^−5, a central venous pressure (CVP) higher than 3 mm Hg, and a pulmonary capillary wedge pressure (PCWP) lower than 12 mm Hg. Excluded were patients with a contraindication for cardiac catheterisation (such as coagulopathy, bleeding disorder, acute infection, severe cardiac dysrhythmia), pregnancy, systemic systolic blood pressure below 110 mm Hg, highly impaired ventricular function with cardiac index below 1.8 L/min*m^2, and known lack of pulmonary vascular reactivity. Patients were monitored by ECG, pulse oxymetry, and non-invasive blood pressure measurement. An intracardiac catheter was introduced into the distal pulmonary artery to measure PAP, CVP, PCWP, and cardiac output. Also measured were the heart rate, systemic arterial pressure (SAP), systemic vascular resistance (SVR), central arterial and venous blood gases. After the initial determination of all parameters the reactivity of the pulmonary vasculature to oxygen (2 to 4 L/min) and nitric oxide (20 ppm) was tested. Subsequently, patients inhaled a single dose of 2.5 μg of nebulised iloprost in two consecutive breaths, using the same inhalation system and iloprost composition as described in Example 1. Haemodynamics parameters and clinical condition of the patients were assessed before and up to 30 minutes after inhalation. In the absence of adverse effects, a second inhalation maneuver with 4 consecutive breaths corresponding to a dose 5 μg iloprost was performed, again followed by an observation period of at least 30 minutes.

[2] = system: patients suffering from pulmonary hypertension (PH); experiment: Iloprost inhalation in six further patients (Example 4); assay type: in vivo, human; details: rapid inhalation as in Example 3
Method: Six further patients suffering from pulmonary hypertension (PH) were treated with iloprost inhalation as in Example 3.

[3] = cited from earlier work
[4] = 2.8 μg in 2 minutes, ultrasonic nebuliser; cited from earlier work
[5] = 2.5 μg and 5 μg rapid inhalation

With `CC#CCC(C)[C@H](O)/C=C/[C@@H]1[C@H]2C/C(=C/CCCC(=O)O)C[C@H]2C[C@H]1O` (stereo partly drawn) [Iloprost, 5-{(E)-(1S,5S,6R,7R)-7-hydroxy-6[(E)-(3S,4RS)-3-hydroxy-4-methyl-1-octen-6-inyl]-bi-cyclo[3.3.0]octan-3-ylidene}pentanoic acid] the “systemic side effects (SAP and SVR changes) versus slow inhalation of iloprost” value [1, 5] was “similar”, the “therapeutic pulmonary vascular effects (PAP and PVR changes) versus slow inhalation of iloprost” value [1, 5] was “comparable to those observed after conventional iloprost treatment” and the “tolerability of the treatment” value ([1]; 2.5 μg in two breaths, then 5 μg in 4 breaths, inhaled, 4 patients) was “all patients tolerated the treatment well”. For the same molecule, the adverse effects [2] was “no adverse effects were observed other than the SAP and SVR changes which were mild”, the pulmonary vascular effects ([2]; PAH, iPAH, portopulmonary, CTEPH) was “very comparable to those found in Example 3” and the solubility ([3]; aqueous buffer pH 9) was “sparingly soluble”. The aqueous solubility [3] was “rather poor”, the solubility ([3]; distilled water and aqueous buffer at pH 3 and pH 5) was “very slightly soluble” and the solubility ([3]; methanol, ethanol, ethyl acetate, acetone and aqueous buffer at pH 7) was “soluble”. The “systemic effects of rapid inhalation (drop in blood pressure, decrease in systemic vascular resistance, flush, jaw pain)” value [4] was “adverse systemic effects”.
